Data: PMC4452589, “An evaluation of the brain distribution of [^11C]GSK1034702, a muscarinic-1 (M1) positive allosteric modulator in the living human brain using positron emission tomography” (EJNMMI Research, 2014)
Like-named read-outs stand apart in the source and are kept apart here.

Assay: [11C]GSK1034702 PET brain distribution and kinetics in healthy male humans
Assay type: in vivo
Settings: human
Experimental: An open-label PET study (GSK study number 110771) was conducted to assess the transport of [^11C]GSK1034702 across the BBB and its distribution in the living human brain. Four healthy males aged between 35 and 55 years old, with body mass index (BMI) between 19.0 and 29.0 kg/m^2, and the absence of past or present neurological, medical or psychiatric illnesses and concomitant medications were enrolled. Clinical status was assessed by history, physical examination, routine blood tests, urine toxicology and electrocardiogram. All subjects provided written informed consent. The study was approved by the Edinburgh Independent Ethics Committee for Medical Research and permission to administer radioisotopes was obtained from the Administration of Radioactive Substances Advisory Committee of the UK. Subjects were recruited by and monitored by the Hammersmith Medicines Research (HMR) clinic. All scanning procedures were performed at the GlaxoSmithKline Clinical Imaging Center, Hammersmith Hospital, London.
Each subject underwent a single study day, during which PET imaging was performed. T1-weighted structural MRI scan was performed for all subjects to provide neuroanatomical information. A tracer dose of [^11C]GSK1034702 (mass <50 μg) was administered as an IV bolus immediately before each PET scan. During the scanning day, each subject received a baseline [^11C]GSK1034702 scan, followed by a single 5-mg oral dose (p.o.) of […] and a subsequent [^11C]GSK1034702 scan approximately 4 h post-dose. Subjects returned to the clinic for a follow-up visit 7 to 14 days following the oral dose of GSK1034702.
Dynamic PET data were acquired using a Siemens Biograph 6 Truepoint with TrueV PET-CT (Siemens Healthcare, Malvern, PA, USA) in three-dimensional (3D) mode. A computed tomography (CT) scan was acquired for attenuation correction of PET data prior to administration of the radiotracer. A cannula was inserted under local anaesthesia into the radial artery, contralateral to the tracer injection site, and used to collect arterial blood samples to estimate the time course of radioactivity and metabolism of GSK1034702. The radiotracer was administered as an IV bolus over 20 s, and dynamic PET data were acquired for 90 min.
Arterial blood radioactivity was measured continuously for the first 15 min after [^11C]GSK1034702 injection, using a continuous sampling system (ABSS Allogg, Mariefred, Sweden). In addition, 12 serial discrete blood samples were obtained (at 5, 10, 15, 20, 25, 30, 40, 50, 60, 70, 80 and 90 min post injection), to determine whole blood and plasma activity. Seven samples (at 5, 10, 20, 30, 50, 70 and 90 min) were further processed by HPLC to measure the fraction of plasma activity representing unmetabolised GSK1034702. For all human studies, the non-protein-bound fraction of [^11C]GSK1034702 in arterial plasma (fP) was assessed by ultrafiltration for the blood sample taken at the beginning of the scan.
Emission PET data were binned into 26 frames (durations: 8 × 15 s, 3 × 60 s, 5 × 2 min, […], 5 × 10 min) and reconstructed using Fourier re-binning and a two-dimensional (2D) filtered back projection algorithm with a ramp filter. Image data were then smoothed with a Gaussian filter (5 mm FWHM). The PET reconstruction process included corrections for scatter, randoms and attenuation. Dynamic PET data were corrected for motion via frame-to-frame image registration and aligned with the structural T1 MRI image using SPM5 (Wellcome Trust Centre for Neuroimaging, http://www.fil.ion.ucl.ac.uk/spm) with a mutual information cost function.
The CIC Neuroanatomical Atlas was non-linearly deformed into the individual's space to obtain a personalised anatomical parcellation of ROIs. These ROIs were applied to the dynamic emission data, and regional TACs were obtained for the whole brain, frontal cortex, occipital cortex, striatum, thalamus, hippocampus and cerebellum. […]

With [11CH3]c1cc(F)c2[nH]c(=O)n(C3CCN(C4CCOCC4)CC3)c2c1 [[^11C]GSK1034702] the “K 1” value (Cerebellum, Subject 1 Scan 1 (baseline)) was 0.23 mL.cm^−3.min^−1, the “K 1” value (Cerebellum, Subject 2 Scan 1 (baseline)) was 0.19 mL.cm^−3.min^−1 and the “K 1” value (Cerebellum, Subject 2 Scan 2 (post dose, 5 mg oral)) was 0.15 mL.cm^−3.min^−1. The “K 1” value (Cerebellum, Subject 4 Scan 1 (baseline)) was 0.19 mL.cm^−3.min^−1, the “K 1” value (Cerebellum, Subject 4 Scan 2 (post dose, 5 mg oral)) was 0.19 mL.cm^−3.min^−1 and the “K 1” value (Cortex, Subject 1 Scan 1 (baseline)) was 0.19 mL.cm^−3.min^−1. For the same compound, the “K 1” value (Cortex, Subject 2 Scan 1 (baseline)) was 0.16 mL.cm^−3.min^−1, the “K 1” value (Cortex, Subject 2 Scan 2 (post dose, 5 mg oral)) was 0.12 mL.cm^−3.min^−1 and the “K 1” value (Cortex, Subject 4 Scan 1 (baseline)) was 0.16 mL.cm^−3.min^−1. The “K 1” value (Cortex, Subject 4 Scan 2 (post dose, 5 mg oral)) was 0.17 mL.cm^−3.min^−1, the “K 1” value (MTL, Subject 1 Scan 1 (baseline)) was 0.33 mL.cm^−3.min^−1 and the “K 1” value (MTL, Subject 2 Scan 1 (baseline)) was 0.19 mL.cm^−3.min^−1. The “K 1” value (MTL, Subject 2 Scan 2 (post dose, 5 mg oral)) was 0.16 mL.cm^−3.min^−1, the “K 1” value (MTL, Subject 4 Scan 1 (baseline)) was 0.24 mL.cm^−3.min^−1 and the “K 1” value (MTL, Subject 4 Scan 2 (post dose, 5 mg oral)) was 0.25 mL.cm^−3.min^−1. For the same compound, the “K 1” value (Striatum, Subject 1 Scan 1 (baseline)) was 0.20 mL.cm^−3.min^−1, the “K 1” value (Striatum, Subject 2 Scan 1 (baseline)) was 0.16 mL.cm^−3.min^−1 and the “K 1” value (Striatum, Subject 2 Scan 2 (post dose, 5 mg oral)) was 0.13 mL.cm^−3.min^−1. For the same compound, the “K 1” value (Striatum, Subject 4 Scan 1 (baseline)) was 0.18 mL.cm^−3.min^−1, the “K 1” value (Striatum, Subject 4 Scan 2 (post dose, 5 mg oral)) was 0.18 mL.cm^−3.min^−1 and the “K 1” value (Thalamus, Subject 1 Scan 1 (baseline)) was 0.29 mL.cm^−3.min^−1. The “K 1” value (Thalamus, Subject 2 Scan 1 (baseline)) was 0.19 mL.cm^−3.min^−1, the “K 1” value (Thalamus, Subject 2 Scan 2 (post dose, 5 mg oral)) was 0.15 mL.cm^−3.min^−1 and the “K 1” value (Thalamus, Subject 4 Scan 1 (baseline)) was 0.20 mL.cm^−3.min^−1. The “K 1” value (Thalamus, Subject 4 Scan 2 (post dose, 5 mg oral)) was 0.20 mL.cm^−3.min^−1, the “K 1” value (White matter, Subject 1 Scan 1 (baseline)) was 0.13 mL.cm^−3.min^−1 and the “K 1” value (White matter, Subject 2 Scan 1 (baseline)) was 0.10 mL.cm^−3.min^−1. The “K 1” value (White matter, Subject 2 Scan 2 (post dose, 5 mg oral)) was 0.08 mL.cm^−3.min^−1, the “K 1” value (White matter, Subject 4 Scan 1 (baseline)) was 0.11 mL.cm^−3.min^−1 and the “K 1” value (White matter, Subject 4 Scan 2 (post dose, 5 mg oral)) was 0.11 mL.cm^−3.min^−1. The “change in MTL VT following oral dose of 5 mg GSK1034702” value (both subjects with pre- and post-dose data) was “small (but non-significant) reduction”, the Kp (brain cortex, intravenous, Cortex, Subject 1 Scan 1 (baseline), read-out: V T) was 5.37 and the Kp (brain cortex, intravenous, Cortex, Subject 2 Scan 1 (baseline), read-out: V T) was 5. For the same compound, the Kp (brain cortex, intravenous, Cortex, Subject 4 Scan 1 (baseline), read-out: V T) was 5.57, the Kp (brain cortex, po, Cortex, Subject 2 Scan 2 (post dose, 5 mg oral), read-out: V T) was 4.03 and the Kp (brain cortex, po, Cortex, Subject 4 Scan 2 (post dose, 5 mg oral), read-out: V T) was 4.81. The Kp (brain striatum, intravenous, Striatum, Subject 1 Scan 1 (baseline), read-out: V T) was 5.59, the Kp (brain striatum, intravenous, Striatum, Subject 2 Scan 1 (baseline), read-out: V T) was 5.05 and the Kp (brain striatum, intravenous, Striatum, Subject 4 Scan 1 (baseline), read-out: V T) was 5.83. For the same compound, the Kp (brain striatum, po, Striatum, Subject 2 Scan 2 (post dose, 5 mg oral), read-out: V T) was 5.29, the Kp (brain striatum, po, Striatum, Subject 4 Scan 2 (post dose, 5 mg oral), read-out: V T) was 4.93 and the Kp (brain white matter, intravenous, White matter, Subject 4 Scan 1 (baseline), read-out: V T) was 5.04. For the same compound, the Kp (cerebellum, intravenous, Cerebellum, Subject 1 Scan 1 (baseline), read-out: V T) was 5.33, the Kp (cerebellum, intravenous, Cerebellum, Subject 2 Scan 1 (baseline), read-out: V T) was 4.75 and the Kp (cerebellum, intravenous, Cerebellum, Subject 4 Scan 1 (baseline), read-out: V T) was 5.17. The Kp (cerebellum, po, Cerebellum, Subject 2 Scan 2 (post dose, 5 mg oral), read-out: V T) was 3.69, the Kp (cerebellum, po, Cerebellum, Subject 4 Scan 2 (post dose, 5 mg oral), read-out: V T) was 4.56 and the Kp (medial temporal lobe (MTL), intravenous, MTL, Subject 1 Scan 1 (baseline), read-out: V T) was 7.81. It also gave a Kp (medial temporal lobe (MTL), intravenous, MTL, Subject 2 Scan 1 (baseline), read-out: V T) of 13.3, a Kp (medial temporal lobe (MTL), intravenous, MTL, Subject 4 Scan 1 (baseline), read-out: V T) of 7.11 and a Kp (medial temporal lobe (MTL), po, MTL, Subject 2 Scan 2 (post dose, 5 mg oral), read-out: V T) of 8.3. The Kp (medial temporal lobe (MTL), po, MTL, Subject 4 Scan 2 (post dose, 5 mg oral), read-out: V T) was 6.91, the “change in K1 following oral dose of 5 mg GSK1034702” value (post-dose versus baseline scan) was “no significant change” and the “change in VT following oral dose of 5 mg GSK1034702” value (post-dose versus baseline scan) was “no significant change”. It also gave a Kp (thalamus, intravenous, Thalamus, Subject 1 Scan 1 (baseline), read-out: V T) of 6.29, a Kp (thalamus, intravenous, Thalamus, Subject 2 Scan 1 (baseline), read-out: V T) of 5.44 and a Kp (thalamus, intravenous, Thalamus, Subject 4 Scan 1 (baseline), read-out: V T) of 5.74. It also gave a Kp (thalamus, po, Thalamus, Subject 2 Scan 2 (post dose, 5 mg oral), read-out: V T) of 4.39, a Kp (thalamus, po, Thalamus, Subject 4 Scan 2 (post dose, 5 mg oral), read-out: V T) of 5.11 and a Kp (white matter, intravenous, White matter, Subject 1 Scan 1 (baseline), read-out: V T) of 4.63. The Kp (white matter, intravenous, White matter, Subject 2 Scan 1 (baseline), read-out: V T) was 4.38, the Kp (white matter, po, White matter, Subject 2 Scan 2 (post dose, 5 mg oral), read-out: V T) was 4.01 and the Kp (white matter, po, White matter, Subject 4 Scan 2 (post dose, 5 mg oral), read-out: V T) was 4.49. It also gave a Kp (male, medial temporal lobe (MTL), intravenous, range over scans, read-out: VT in the MTL) of 7 to 13, a Kp (male, white matter, intravenous, range over scans, read-out: VT in the white matter) of 4 to 5 and a Kp (male, whole brain, intravenous, two-tissue compartmental model, read-out: whole brain VT) of 4.9.
